The values below are quoted from earlier work in patent US20080241073A1, “Polymeric Micelle Type Mri Imaging Agent” (Kanagawa Academy of Science and Technology, priority 2004, published 2008).

The conditions of the data set: Corot et al., Non-patent Literature 2.

As for `O=C([O-])CN1CCN(CC(=O)[O-])CCN(CC(=O)O)CCN(CC(=O)[O-])CC1.[Gd+3]` [DOTA-Gd], the T1 relaxivity was 3.4.
